Test results reported in patent publication US20230271950A1, “ANTIBACTERIAL PICOLINAMIDE COMPOUNDS” (University of Notre Dame Du Lac, priority 2020, published 2023).
≈ marks a conversion by molar mass, not a printed value. Like-named read-outs stand apart in the source and are kept apart here.

How the values were obtained:
CDI = settings: patients treated with the antibiotic; cited from earlier work
[1] = test system: C. difficile strain ATCC43255; assay: Serial passage for development of resistance; assay type: cell-based, Clostridioides difficile; settings: for increase of MIC on serial passage: C. difficile ATCC43255, 25 passages; for MIC: Clostridioides difficile
[2] = test system: stationary-phase C. difficile; assay: Time-kill assay, stationary-phase C. difficile; assay type: cell-based, Clostridioides difficile; settings: 8×, 16×, and 32×MIC
Experimental: Time-kill assay. […] A control tube without antibiotic was also included. At intervals of 4, 8, and 24 h, 100-μL aliquots of the cultures were plated onto pre-reduced brain heart infusion broth agar media for colony counts. […] The experiment was done in triplicate.

C. difficile ATCC43255 = assay: Scanning-electron microscopy of C. difficile vegetative cells; assay type: cell-based, Clostridioides difficile; settings: compound 1 at 4× to 32×MIC; VAN at 4×MIC
Experimental: FIG. 2. Mechanism of action of compound 1. (A) Macromolecular biosynthesis assays: Compound 1 was incubated with C. difficile ATCC43255 at 0.5×MIC. […] The incubation time was 60 min for DNA, 120 min for peptidoglycan synthesis and RNA, and 180 min for protein synthesis. (B-G) Imaging of C. difficile […] vegetative cells (logarithmic growth) by scanning electron microscopy.
Scanning-electron microscopy. […] Following incubation, the cells were washed with PBS (3×) and applied onto poly-1-lysine (Santa Cruz Biotechnology, Dallas, Tex.) coated microglass coverslips (Electron Microscopy Sciences, Hatfield, Pa.) and incubated for 15 min. The cells were fixed for 1 h with 2% glutaraldehyde, followed by a wash (3×) with sodium cacodylate buffer at pH 7.4. The samples were fixed with 1% osmium tetroxide for 1 h and rinsed (3×) in the buffer. The samples were then put through a graded ethanol series for dehydration, followed by critical point drying. The samples were then mounted on SEM stubs and sputter-coated with iridium. Microscopy and imaging were performed on a Magellan 400 XHR instrument (FEI, Hillsboro, Oreg.).

HeLa cells = assay: XTT cytotoxicity assay with HeLa cells; assay type: cell-based; settings: Homo sapiens
Experimental: XTT assay. Cytotoxicity assays were performed in triplicate against HeLa cells (ATCC CCL-2). The IC50 values were calculated by nonlinear regression with GraphPad Prism 5 (San Diego, Calif.).
XTT assay. XTT assays were performed with HeLa cells (ATCC CCL-2) in triplicate, as previously described (Lancet 2008, 371, 1486). IC50 values were determined by nonlinear regression using GraphPad Prism 5 (San Diego, Calif.).

[3] = Pharmacokinetics study in mice (plasma and feces levels); assay type: in vivo; settings: for concentration at 8 h: female, CD-1, mouse
Experimental: Pharmacokinetics (PK) study. Mice (n=2 per time point) were given a single 100 μL solution of 5 mg/mL of compound 1 (equivalent to 20 mg/kg). Terminal blood was collected in heparinized syringes by cardiac puncture at 30 min, 1 h, 2 h, 4 h, and 8 h. The two mice at the 8-h time point were place in metabolism cages for collection of feces. Compound 1 was dissolved in 5% DMSO/95% water with 96 mg/mL of sodium bicarbonate. Blood was centrifuged at 1,000 g for 20 min at 4° C. and plasma was separated and stored at −80° C. until analysis. A 45-μL aliquot of plasma was mixed with 5 μL of H2O:ACN (1:1) and was quenched with 100 μL of acetonitrile containing 20 μM of internal standard (compound 10). The sample was centrifuged at 21,000 g for 15 min at 4° C. to precipitate the proteins, and the resulting supernatant was analyzed by UPLC-TQD detector using multiple-reaction monitoring (MRM). Calibration curves for compound 1 were prepared from 0 to 102.4 μM using a control mouse plasma (50 μL). Peak area ratios relative to internal standard and linear regression was used from which the concentrations in plasma samples from the PK study were determined.
An average of 250 mg of feces were collected at 8 h from two mice, and subsequently homogenized with 6 times the feces volume (1,500 μL of H2O:ACN 1:1) using a Bullet Blender (Next Advance, Inc., Troy, N.Y.). The homogenate was centrifuged at 21,000 g for 5 min. The fecal supernatant (72 μL) was mixed with 8 μL of a solution of H2O:ACN (1:1) and 40 μL of 50 μM of the internal standard in ACN with 0.5% formic acid. A calibration curve was prepared from 0 μM to 102.4 μM in control mouse feces. Plasma and feces were analyzed on a Waters TQD tandem quadrupole detector (Waters Corporation, Milford, Mass.) using a YMC-Triart C18 100 mm×2.0 mm column (3μ, YMC Co. Ltd, Kyoto, Japan). The chromatographic conditions consisted of elution with 30% H2O/70% ACN containing 0.10% formic acid for 5 min at a flow rate 0.5 mL/min. Mass Spectrometry acquisition was performed in the positive electrospray ionization mode with MRM. The capillary, cone, extractor and RF lens voltages were set at 2.8 kV, 40 V, 1 V and 0.1 V, respectively. The desolvation and cone gas (nitrogen) flow rates were 650 L/h and 50 L/h, respectively. The source temperature was set at 150° C. The desolvation temperature was 350° C. The MRM transitions used were 459.4→254.0 for compound 1, and 294.8→133.5 for the internal standard.
Animals. Female C57BL/6 mice weighing 18-20 g and 6-8 weeks of age were used for the efficacy study (Jackson, Bar Harbor, Me.). Female CD-1 mice (24-31 g and 7-8 weeks of age) were used for the PK study. They were housed in groups of five mice in sterile polycarbonate shoeboxes with bedding consisting of ¼-inch corncob (The Andersons Ind., Maumee, Ohio) and Alpha-Dri (Shepherd Specialty Papers, Inc., Richland, Mich.). Mice were maintained on a 12-h light/dark cycle at 72° F. and were given Teklad 2918 irradiated extruded rodent diet and water ad libitum. All procedures were performed in accordance with and approved by the University of Notre Dame Institutional Animal Care and Use Committee.
Pharmacokinetics (PK) Studies. Compounds 4, 87, 107, and 108 were dissolved in 10% DMSO, 25% propylene glycol, 15% Tween 80 and 50% water at concentrations of 5 mg/mL or 10 mg/mL. Compound 116 was dissolved in 5% DMSO, 95% water with 96 mg/mL of sodium bicarbonate. Mice (n=2 per time point) were given a single 100 μL oral gavage of the test compound (equivalent to either 10 mg/kg and/or 20 mg/kg), and terminal blood was collected in heparinized syringes by cardiac puncture at 30 min, 1 h, 2 h, 4 h, and 8 h. An average of 250 mg of feces were collected after 8 h from two mice housed in metabolism cages in each group for further analysis. Blood was centrifuged at 1000 g for 2 min at 4° C. to obtain plasma. Plasma and fecal samples were stored at −80° C. until analysis. […]

[4] = 20 mg/kg single oral administration
[5] = single oral gavage, dose 20 mg · kg^−1, feces collected after 8 h, read-out: Drug concentration in fecal samples (mg kg^−1 feces)

CCc1c(Cl)c(O)c(Cl)c(O)c1C(=O)O[C@H]1[C@H](O)[C@H](OC)[C@H](OC/C2=C\C=C\C[C@H](O)/C(C)=C/[C@H](CC)[C@@H](O[C@@H]3OC(C)(C)[C@@H](OC(=O)C(C)C)[C@H](O)[C@@H]3O)/C(C)=C/C(C)=C/C[C@@H]([C@@H](C)O)OC2=O)O[C@@H]1C [FDX, fidaxomicin, reference compound]
Recurrence of CDI (CDI): 15%

CN[C@H](CC(C)C)C(=O)N[C@H]1C(=O)N[C@@H](CC(N)=O)C(=O)N[C@H]2C(=O)N[C@H]3C(=O)N[C@H](C(=O)N[C@H](C(=O)O)c4cc(O)cc(O)c4-c4cc3ccc4O)[C@H](O)c3ccc(c(Cl)c3)Oc3cc2cc(c3O[C@@H]2O[C@H](CO)[C@@H](O)[C@H](O)[C@H]2O[C@H]2C[C@](C)(N)[C@H](O)[C@H](C)O2)Oc2ccc(cc2Cl)[C@H]1O [VAN, vancomycin, reference compound]
increase of MIC on serial passage [1]: 8 fold | MIC ([1]; C. difficile ATCC43255, sub-MIC concentrations, 25 passages, read-out: MIC after serial passage): 4 µg/mL (≈ 2.76 µM) | reduction of C. difficile stationary-phase growth [2]: 1 log10 | Recurrence of CDI (CDI): 25% | cell surface by scanning-electron microscopy (C. difficile ATCC43255): altered

O=C(O)c1ccc2oc(NC(=O)c3cc(Oc4cccc(OC(F)(F)F)c4)ccn3)nc2c1 [Compound 1, Sodium 2-(4-(3-(trifluoromethoxy)phenoxy)picolinamido)benzo[d]oxazole-5-carboxylate]
increase of MIC on serial passage [1]: 8 fold | MIC ([1]; ATCC43255, read-out: MIC after serial passage): 1 µg/mL | MIC ([1]; ATCC43255, read-out: starting MIC in serial passage): 0.125 µg/mL | reduction of C. difficile stationary-phase growth [2]: 2 log10 | IC50 (HeLa cells): 179 ± 4 µg/mL | IC50 (HeLa cells; Table 6): 179 µg/mL | Concentrations in plasma [3, 4]: non-quantifiable | levels in feces higher than the MIC for C. difficile ATCC 43255 [3, 4]: > 100 fold | Conc. feces/MIC ([3]; dose 20 mg · kg^−1): 108 | concentration at 8 h ([3]; 20 mg/kg single oral administration, feces collected at 8 h, read-out: levels in feces): 13000 ng/g | Drug concentration in fecal samples (mg kg^−1 feces) ([3]; single oral gavage, dose 20 mg · kg^−1, feces collected after 8 h): 13 mg/kg | cell surface by scanning-electron microscopy (C. difficile ATCC43255): bleb formation on the surface was evident

O=C(Nc1ncco1)c1ccnc(-c2ccc(Cl)c(Cl)c2)c1 [Compound 4, 2-(3,4-Dichlorophenyl)-N-(oxazol-2-yl)isonicotinamide]
IC50 (HeLa cells; Table 6): 79.9 ± 1 µg/mL (≈ 239 µM) | Conc. feces/MIC ([3]; dose 20 mg · kg^−1): 11 | concentration at 8 h [3, 5]: 2800 ng/g

O=C(Nc1ncco1)c1cc(-c2ccc(Cl)c(Cl)c2)ccn1 [Compound 87, 4-(3,4-Dichlorophenyl)-N-(oxazol-2-yl)picolinamide]
IC50 (HeLa cells; Table 6): 95.2 ± 1 µg/mL (≈ 285 µM) | Conc. feces/MIC ([3]; dose 10 mg · kg^−1): 6.6 | concentration at 8 h ([3]; single oral gavage, dose 10 mg · kg^−1, feces collected after 8 h, read-out: Drug concentration in fecal samples (mg kg^−1 feces)): 790 ng/g

O=C(Nc1ncco1)c1cc(Oc2cccc(OC(F)(F)F)c2)ccn1 [Compound 108, N-(Oxazol-2-yl)-4-(3-(trifluoromethoxy)phenoxy)picolinamide]
IC50 (HeLa cells; Table 6): 93.3 ± 1.7 µg/mL (≈ 255 µM) | Conc. feces/MIC ([3]; dose 20 mg · kg^−1): 49 | concentration at 8 h [3, 5]: 49000 ng/g
